Drawing on ChEMBL document CHEMBL3046605, “Biocontrol of rice blast by the phenaminomethylacetic acid producer of Bacillus methylotrophicus strain BC79” (2013), this text covers Activity and Efficacy for 1 compound.

Holding throughout (type): functional
For assay [1], the system named is Pyricularia oryzae. Nature of the assay: Antifungal activity against Magnaporthe oryzae in rice seedlings assessed as rice yield at 15% with formulation dose of 200 g/667 m'2 applied using knapsack sprayer measured under field trials (reference value: 5940.6 +/-1.8 kg/hm'2).
The subject of assay [2] is Pyricularia oryzae. Briefly: Antifungal activity against Magnaporthe oryzae in rice seedlings assessed as rice blast disease incidence at 15% with formulation dose of 200 g/667 m'2 applied using knapsack sprayer measured under field trials (reference value: 43.7 +/-5.4%).
The test system of assay [3] is Pyricularia oryzae. Briefly: Antifungal activity against Magnaporthe oryzae in rice seedlings assessed as rice blast disease control efficacy at 15% with formulation dose of 400 g/667 m'2 applied using knapsack sprayer measured under field trials.
The test system of assay [4] is Pyricularia oryzae. Briefly: Antifungal activity against Magnaporthe oryzae in rice seedlings assessed as rice blast disease control efficacy treated after fungal inoculation at 15% measured under green house conditions.
In assay [5] the test system is Pyricularia oryzae. Briefly: Antifungal activity against Magnaporthe oryzae in rice seedlings assessed as rice blast disease control efficacy treated 24 hr prior to fungal inoculation at 15% measured at 6 days post-inoculation under green house conditions.
In assay [6] the test system is Pyricularia oryzae. Briefly: Antifungal activity against Magnaporthe oryzae in rice seedlings assessed as rice blast disease incidence at 15% with formulation dose of 400 g/667 m'2 applied using knapsack sprayer measured under field trials (reference value: 43.7 +/-5.4%).
In assay [7] the test system is Pyricularia oryzae. Briefly: Antifungal activity against Magnaporthe oryzae in rice seedlings assessed as rice blast disease control efficacy at 15% with formulation dose of 200 g/667 m'2 applied using knapsack sprayer measured under field trials.
The subject of assay [8] is Pyricularia oryzae. Nature of the assay: Antifungal activity against Magnaporthe oryzae in rice seedlings assessed as rice blast disease incidence treated 24 hr prior to fungal inoculation at 15% measured at 6 days post-inoculation under green house conditions (reference value: 92.4 +/-5.6%).
Assay [9] concerns Pyricularia oryzae. Briefly: Antifungal activity against Magnaporthe oryzae in rice seedlings assessed as rice blast disease incidence treated after fungal inoculation at 15% measured under green house conditions (reference value: 92.4 +/-5.6%).
Assay [10] has as its system Pyricularia oryzae. Nature of the assay: Antifungal activity against Magnaporthe oryzae in rice seedlings assessed as rice yield at 15% with formulation dose of 400 g/667 m'2 applied using knapsack sprayer measured under field trials (reference value: 5940.6 +/-1.8 kg/hm'2).

On to `O=C(O)CCNc1ccccc1` [PHENAMINO METHYL ACETIC ACID], for which the Activity with Pyricularia oryzae [1] amounted to 6480.5 Kg/hr.m2; with Pyricularia oryzae [2], 18.3%; in the assay with Pyricularia oryzae [6], 18.3%; in the assay with Pyricularia oryzae [8], 62.5%; in the assay on Pyricularia oryzae [9], 60%; in the assay with Pyricularia oryzae [10] it was 6275.7 Kg/hr.m2. In addition, the Efficacy was found to be 75.5% with Pyricularia oryzae [3], 73.6% in the assay with Pyricularia oryzae [4], 74.3% with Pyricularia oryzae [5] and 68.3% with Pyricularia oryzae [7].
